The NIST ThermoML archive (doi:10.1021/je050498q)
± gives the expanded uncertainty stated by the source.

Columns and labels:
[1] = wn = mass fraction of the nth substance listed; settings: 101 kPa, Liquid, w2 = 0
[2] = refractive index (Na D-line) (dimensionless); wn = mass fraction of the nth substance listed; settings: 101 kPa, Liquid, w2 = 0

viscosity ([1]; 298.15 K): 0.89 ± 0.023 mPa·s
viscosity ([1]; 308.15 K): 0.729 ± 0.019 mPa·s
viscosity ([1]; 318.15 K): 0.6 ± 0.017 mPa·s
refractive index ([2]; 298.15 K): 1.3325 ± 0.0007
refractive index ([2]; 308.15 K): 1.3313 ± 0.0007
refractive index ([2]; 318.15 K): 1.33 ± 0.0007
Compound: O [water] + O=C([O-])[C@H](O)[C@@H](O)C(=O)[O-].[Na+].[Na+]
